Results published in ChEMBL document CHEMBL3137667, “[Drug-induced liver injury; fourteenth updated edition of the bibliographic database of liver injuries and related drugs]” (Gastroenterol Clin Biol, 2004).

Key:
[1] = Highest frequency of moderate liver toxicity observed during clinical trials, expressed as a percentage. [column '% BIOL' in source]; conditions: human
[2] = human, serum
[3] = human
[4] = human; remark: listed apart in the source
[5] = human, serum, 4383 h
[6] = Presence of at least one case with successful reintroduction. [column 'REINT' in source]; conditions: human
[7] = human, serum; remark: listed apart in the source
[8] = human; remark: listed apart in the source
[9] = human; remark: listed apart in the source
[10] = human; remark: listed apart in the source
[11] = human; remark: listed apart in the source
[12] = human; remark: listed apart in the source
[13] = Highest frequency of acute liver toxicity observed during clinical trials, expressed as a percentage. [column '% AIGUE' in source]; conditions: human
[14] = human; remark: listed apart in the source
[15] = human; remark: listed apart in the source
[16] = Proposed mechanism(s) of liver damage. [column 'MEC' in source]; conditions: human
[17] = Times to onset, minimal and maximal, observed in the indexed observations. [column 'DELAI' in source]; conditions: human
[18] = Comments (NB not yet translated). [column 'COMMENTAIRES' in source]; conditions: human
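For Hepatotoxicity (association with vascular disease) in this document: count of indexed literature references reporting vascular liver injury in humans, e.g. peliosis hepatitis, hepatic veno-occlusive disease or Budd-Chiari syndrome.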
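For Hepatotoxicity (benign tumour) in this document: value is a count of indexed literature references citing a benign tumour confirmed by histopathology.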
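For Hepatotoxicity (choleostasis) in this document: human cholestatic liver injury, shown by histopathology or by peak ALT or AST elevation over alkaline phosphatase ratio below 2, value counts indexed literature reports.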
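For Hepatotoxicity (chronic liver disease) in this document: chronic liver injury confirmed by histopathology or persistently raised serum aminotransferase activity beyond 6 months, value given as the count of indexed literature references.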
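For Hepatotoxicity (cirrhosis) in this document: value is a count of indexed literature references reporting cirrhosis confirmed by histopathology.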
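For Hepatotoxicity (cytolytic) in this document: human cytolytic liver injury, shown by histopathology or by a ratio above 5 of peak ALT or AST elevation to alkaline phosphatase elevation, value counts indexed references.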
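For Hepatotoxicity (granulomatous hepatitis) in this document: value is a count of indexed literature references reporting granulomatous liver disease confirmed by histopathology.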
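For Hepatotoxicity (malignant tumour) in this document: malignant tumour confirmed by histopathology, value gives the count of indexed literature references reporting it.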
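For Hepatotoxicity (severe hepatitis) in this document: human clinical data: severe hepatitis, meaning potentially life-threatening liver failure or clinically observed cases, the value counts how many indexed literature references report it.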
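For Hepatotoxicity (steatosis) in this document: steatosis confirmed by histopathology, value is the count of indexed references.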

Row | SMILES | Hepatotoxicity (moderate) [1] | Hepatotoxicity (acute) [2] | Hepatotoxicity (cytolytic) [3] | Hepatotoxicity (granulomatous hepatitis) [4] | Hepatotoxicity (chronic liver disease) [5] | Hepatotoxicity (successful reintroduction) [6] | Hepatotoxicity (moderate) [7] | Hepatotoxicity (cirrhosis) [8] | Hepatotoxicity (steatosis) [9] | Hepatotoxicity (severe hepatitis) [10] | Hepatotoxicity (choleostasis) [11] | Hepatotoxicity (benign tumour) [12] | Hepatotoxicity (acute) [13] | Hepatotoxicity (malignant tumour) [14] | Hepatotoxicity (association with vascular disease) [15] | Hepatotoxicity (moderate) ([1]; Liver) | Hepatotoxicity (severe hepatitis) ([10]; Liver) | Hepatotoxicity (mechanism) [16] | Hepatotoxicity (time to onset) [17] | Hepatotoxicity (comment) [18] | also measured
1 | CC(C(=O)Nc1cc(-c2ccccc2)nn1-c1ccccc1)N(C)C (stereo unspecified) [DIFENAMIZOLE] | 0% | 1 | 1 | 0 | 0 | yes | 0 | 0 | 0 | 1 | 0 | 0 | 0% | 0 | 0 |  |  |  |  |  | 
2 | COc1cc(C(=S)N2CCOCC2)cc(OC)c1OC [TRITIOZINE] | 3% | 2 | 0 | 0 | 0 | yes | 1 | 0 | 0 | 0 | 0 | 0 | 0% | 0 | 0 |  |  |  |  |  | 
3 | CCc1c2c(nc3ccc(OC(=O)N4CCC(N5CCCCC5)CC4)cc13)-c1cc3c(c(=O)n1C2)COC(=O)[C@]3(O)CC [IRINOTECAN] |  | 3 | 1 | 0 | 0 | yes | 12 | 0 | 0 |  | 2 | 0 |  | 0 | 0 | 13.3% | 0 |  |  |  | Hepatotoxicity (acute) ([13]; Liver): 4.2%
4 | Cc1noc(NS(=O)(=O)c2ccc(N)cc2)c1C [SULFISOXAZOLE] |  | 4 | 1 | 0 | 0 |  | 0 | 0 | 0 |  | 2 | 0 |  | 0 | 0 | 0% | 1 | Allergic | 2 days - 6 days | CHOLANGITE RC/COTRIMOXAZOLE | Hepatotoxicity (acute) ([13]; Liver): 0%
5 | O=C1CN2Cc3c(ccc(Cl)c3Cl)N=C2N1 [ANAGRELIDE] | 0.2% | 1 | 0 | 0 | 0 | yes | 1 | 0 | 0 | 0 | 1 | 0 | 0% | 0 | 0 |  |  |  |  |  | 
6 | CC1=C(C(=O)O)N2C(=O)[C@@H](NC(=O)[C@H](N)C3=CCC=CC3)[C@H]2SC1 [CEPHRADINE] | 24.3% | 1 | 0 | 0 | 0 |  | 1 | 0 | 0 | 0 | 1 | 0 | 0% | 0 | 0 |  |  | Allergic | 3 weeks | CHOLECYSTITE_A_EOSINOPHILES | 
7 | CC(CN(C)C)CN1c2ccccc2CCc2ccccc21 (stereo unspecified) [TRIMIPRAMINE] | 0% | 2 | 1 | 0 | 0 |  | 2 | 0 | 0 | 0 | 0 | 0 | 0% | 0 | 0 |  |  | Dose-dependant | 2 weeks - 3 weeks | RC/DESIPRAMINE/CYAMEMAZINE | 
8 | NCCCC[C@H](N[C@@H](CCc1ccccc1)C(=O)O)C(=O)N1CCC[C@H]1C(=O)O [LISINOPRIL ANHYDROUS] | 7.7% | 3 | 2 | 0 | 1 |  | 4 | 0 | 0 | 1 | 0 | 0 | 0% | 0 | 0 |  |  | Allergic | 9 days - 5 months | AC_ANTI-ML RC/LISINOPRIL | 
9 | CCOC(=O)C1=C(COCCN)NC(C)=C(C(=O)OC)C1c1ccccc1Cl (stereo unspecified) [AMLODIPINE] |  | 4 | 3 | 0 | 0 |  | 2 | 0 | 0 |  | 2 | 0 |  | 0 | 0 | 12.8% | 0 | Allergic | 1 month - 10 months | CHOLANGIOLITE AC_ANTI-M/-N RC/DILTIAZEM | Hepatotoxicity (acute) ([13]; Liver): 0%
10 | CN(CCOc1ccc(CC2SC(=O)NC2=O)cc1)c1ccccn1 (stereo unspecified) [ROSIGLITAZONE] | 0.2% | 10 | 7 | 3 | 1 |  | 8 | 0 | 0 | 5 | 2 | 0 | 0% | 0 | 0 |  |  | Allergic | 1 week - 4 years | CHOLANGITE | 
11 | O=[N+]([O-])O[C@H]1CO[C@H]2[C@@H]1OC[C@H]2O[N+](=O)[O-] [ISOSORBIDE DINITRATE] | 0% | 1 | 0 | 0 | 0 | yes | 1 | 0 | 0 | 0 | 0 | 0 | 0% | 0 | 0 |  |  |  |  |  | 
12 | Nc1ccc(S(=O)(=O)Nc2ncccn2)cc1 [SULFADIAZINE] |  | 8 |  |  | 0 |  | 2 | 0 | 0 |  |  | 0 |  | 0 | 0 | 2.7% | 1 |  | 1 week - 2 months | CHOLESTASE_PROLONGEE | Hepatotoxicity (cytolytic) ([3]; Liver): 3; Hepatotoxicity (granulomatous hepatitis) ([4]; Liver): 0; Hepatotoxicity (mechanism) ([16]; Liver): Allergic, Reactive metabolite; Hepatotoxicity (choleostasis) ([11]; Liver): 1; Hepatotoxicity (acute) ([13]; Liver): 0%
13 | Cc1c(C)c2c(c(C)c1O)CC[C@@](C)(CCC[C@H](C)CCC[C@H](C)CCCC(C)C)O2 [ALPHA-TOCOPHEROL] |  | 3 |  |  | 0 |  | 0 | 0 | 0 |  |  | 0 |  | 0 | 0 | 0% | 4 |  | 1 week - 2 months | CONCERNE_E-FEROL* | Hepatotoxicity (cytolytic) ([3]; Liver): 3; Hepatotoxicity (granulomatous hepatitis) ([4]; Liver): 0; Hepatotoxicity (mechanism) ([16]; Liver): Dose-dependant; Hepatotoxicity (choleostasis) ([11]; Liver): 3; Hepatotoxicity (acute) ([13]; Liver): 0%
